System: subjects with psoriasis
Assay: erythema resolution in psoriasis plaques after topical administration
Format: in vivo, human
Details: 0.5% by weight in cosmetic composition, topical twice daily for one week; two subjects, elbows; observed day 7
Procedure: In another method, an effective amount of hypoestoxide crude extract, hypoestes rosea dried leaf powder or a compound of formula I, in a cosmetic composition or in isolation, is applied to the host's skin to alleviate psoriasis. In a preferred embodiment, 0.5% by weight of pure hypoestoxide in a cosmetic composition was applied to two subjects with psoriasis. Topical administration was performed twice daily for one week at the subjects' job sites. Subjects had crusted erythematous plaques on their elbows. The cosmetic composition consisted of the following ingredients: multi-fruit complex, cetearyl alcohol and ceteareth 20, glyceryl stearate, cetyl alcohol, tocopherol, vitamin A palmatate, allantoin, lanolin, ascorbic acid, botanical extract, xanthan gum, ceteth-20 and propylparaben. Erythema resolution was noted by observation of the subjects' plaques on day 7.

## C=C1C(=O)C[C@H]2C[C@@H]3O[C@@]3(C)CC[C@@H]3O[C@@]3(C)C[C@@H](OC(C)=O)[C@H]1C2(C)C [hypoestoxide]
  Erythema resolution of crusted erythematous plaques: significant erythema resolution
